Source: patent publication US20210395309A1, “PEPTIDE-DRUG CONJUGATES” (Hong Kong Baptist University, priority 2020, published 2021)
“Also recorded” adds a separate entry of the source. Read-outs that look alike come from different tables or passages of the source. Where a SMILES comes first, the peptide text is derived from it. The star is where a group is joined. Paclitaxel(2'-O-succinyl) = CC(=O)O[C@H]1C(=O)[C@@]2(C)[C@H]([C@H](OC(=O)c3ccccc3)[C@]3(O)C[C@H](OC(=O)[C@H](OC(=O)CCC(=O)*)[C@@H](NC(=O)c4ccccc4)c4ccccc4)C(C)=C1C3(C)C)[C@]1(OC(C)=O)CO[C@@H]1C[C@@H]2O

Assays:
[1] = for body weight decrease compared with control mice: day 28
Experimental: Mice were kept at room temperature 25° C. with an alternating 12 h light-dark cycle and were allowed access to food and water. […] MDA-MB-468 cells (5×10^6 cells per mouse) were suspended in PBS and inoculated subcutaneously into the fourth mammary fat pad of athymic nude mice. Tumor growth was monitored every four days by measuring two perpendicular diameters with calipers. […] The tumors were measured with calipers every day, and tumor volumes were calculated using the following formula: a^2×b×0.4, where “a” is the smallest diameter and “b” is the diameter perpendicular to “a”. At the end of the experiment, the mice were sacrificed, and the tumor weights of each animal were analyzed. Blood samples (˜100 μL) were taken from the retro-orbital plexus in heparinized capillary tubes (Modulohm A/S, Herlev, Denmark). Total white blood cell counts were determined manually for each sample using a Neubauer chamber (GMBH, Wertheim, Germany).

[2] = test system: HEK293T (ACE-negative) cells; experiment: MTT cytotoxicity assay in ACE-negative HEK293T; format: cell-based, human; conditions: 48 h, mean (95% CI)
Experimental: (§1) MTT assays were performed to study the in vitro antitumor effects of BPP-PTX conjugate as well as free PTX and BPP in various ACE-negative and ACE-positive cell lines. Briefly, the cells (5,000 per well) were seeded in 96-well plates 24 h before treatment. The different drug formulations at concentrations of 0.01-1000 nM PTX or 0.01-1000 nM BPP-PTX and free BPP were added. The cells were cultured for another 48 h. 20 μL of 3-(4,5-dimethylthiazol-2-yl)-2,5-diphenyltetrazolium bromide (MTT) solution (5 mg/mL) was added. The cells were further cultured for 4 h, the medium was removed, and 150 μL DMSO was added to dissolve the MTT-formazan crystals. The optical density (O.D.) values for the untreated group were set as 100% viability. Independent experiments were performed in triplicate.
(§2) Each experiment was performed at least three times. GraphPad Prism 6.0 software was used for IC50 calculations and statistical analyses, including student t-test and two-way ANOVA.

[3] = test system: MDA-MB-231 (ACE-positive) cells; experiment: MTT cytotoxicity assay in ACE-positive TNBC MDA-MB-231; format: cell-based, human; conditions: 48 h, mean (95% CI)
Experimental: as §1, §2

[4] = test system: MDA-MB-468 (ACE-positive) cells; experiment: MTT cytotoxicity assay in ACE-positive TNBC MDA-MB-468; format: cell-based, human; conditions: 48 h, mean (95% CI)
Experimental: as §1, §2

[5] = test system: MDA-MB-231 and MDA-MB-468 cells; experiment: DAPI staining of nuclei for apoptosis; format: cell-based, human; conditions: 10 nM
Experimental: The occurrence of apoptosis was evaluated by DAPI staining. Cells (4.0×10^5 cells/well) were seeded and incubated with 10 nM PTX or BPP-PTX for 24 h. Following treatment, the cells were washed with phosphate-buffered saline (PBS) and fixed with 4% paraformaldehyde (Sigma-Aldrich) for 15 min at room temperature 25° C., and then stained in the dark with a DAPI solution for 10 min at room temperature 25° C. Thereafter, the cells were washed with PBS and photographed under an inverted fluorescence microscope (Olympus IX71; Olympus, Tokyo, Japan).

MDA-MB-468-siACE cells = experiment: Cytotoxicity in ACE-knockdown MDA-MB-468-siACE versus MDA-MB-468-siCtr; format: cell-based, human; conditions: 10- and 100 nM
Experimental: (§3) ACE siRNA (h2) (sc-270350) and Control siRNA-A (sc-37007) were purchased from Santa Cruz Biotechnology, Inc. The ACE expression plasmid was bought from Gen Script (Nanjing) Co., Ltd. Transfections were carried out using Lipofectamine 2000 (Invitrogen) according to the manufacturer's instructions.
as §1
(§4) Next, it was determined whether the cytotoxicity of BPP-PTX was mediated by ACE or not. First, the ACE protein was artificially overexpressed in HEK293T cell lines by transfecting ACE-containing plasmid, and the empty plasmid was transfected as a control. […]

HEK293T-ACE cells = experiment: Cytotoxicity in ACE-overexpressed HEK293T-ACE versus control HEK293T; format: cell-based, human; conditions: 1-, 10-, and 100 nM; ACE plasmid vs empty plasmid
Experimental: as §3, §1, §4

MDA-MB-468 cells [6] = experiment: TNBC orthotopic mouse model, tumor growth; format: in vivo
Experimental: To test the in vivo efficacy and toxicity of BPP-PTX, an orthotopic mouse model was established. ACE-positive MDA-MB-468 cells were injected orthotopically in the mammary fat pads of the female athymic nude mouse. Once mice attained palpable tumors, they were randomly divided into four groups and treated for 28 days with PBS, free PTX (2.4 μmol/kg), low dose BPP-PTX (2.4 μmol/kg), and high-dose BPP-PTX (9.6 μmol/kg), every 4 days by intraperitoneal injection (i.p.). Tumor growth was monitored by measuring tumor volume every 4 days with a caliper rule. On day 4, after the first injection, the effect of the drugs was not yet detectable since average tumor volumes, as measured with the caliper, were similar in the four groups of mice. […] On day 28, the average tumor volume of mice treated with low-dose BPP-PTX had decreased by about 15% compared to animals treated with free PTX, and by 54% compared to control animals (PBS). Meanwhile, the average tumor volume of mice treated with high-dose BPP-PTX, had decreased by about 30% compared to animals treated with free PTX, and by 62% compared to control animals (FIGS. 5A and 5B). Consistently, the average tumor weight of mice treated with low-dose BPP-PTX was 0.20 g (0.17, 0.24) lower than that of mice treated with free PTX (0.26 g (0.21, 0.31)) and control mice (0.43 g (0.37, 0.49)).

MDA-MB-468 cells [7] = experiment: Annexin V-FITC/PI apoptosis assay, flow cytometry; format: cell-based, human; conditions: 10 nM, 48 h
Experimental: (§5) 1×10^5 MDA-MB-231 or 1.5×10^5 MDA-MB-468 cells per well were cultured in 6-well plates. After attachment, cells were treated with DMSO or 10 nM PTX or BPP-PTX for 48 h and stained with Annexin V (AV) conjugated with FITC and propidium iodide (PI) using the Annexin V-FITC Apoptosis Assay Kit following the manufacturer's instructions. Stained cells were analyzed with the Cyflow Cube flow cytometer (PARTEC, Germany). Data were analyzed using FlowJo 7.6.5 software.

MDA-MB-231 cells = experiment: Annexin V-FITC/PI apoptosis assay, flow cytometry; format: cell-based, human; conditions: 10 nM, 48 h
Experimental: as §5

MDA-MB-231-siACE cells = experiment: Cytotoxicity in ACE-knockdown MDA-MB-231-siACE versus MDA-MB-231-siCtr; format: cell-based, human; conditions: 10- and 100 nM
Experimental: as §3, §1, §4

SMILES | WBC count decrease after the 28-day treatment compared to before treatment ([1]; 2.4 μmol/kg i.p. every 4 days) | WBC count decrease after the 28-day treatment compared to before treatment ([1]; 9.6 μmol/kg i.p. every 4 days) | body weight loss compared with control mice ([1]; day 0 to day 24, low dose 2.4 μmol/kg) | body weight decrease compared with control mice ([1]; 2.4 μmol/kg i.p. every 4 days) | body weight decrease compared with control mice ([1]; 9.6 μmol/kg i.p. every 4 days) | IC50 [2] | IC50 [3] | IC50 [4] | nuclei morphology (DAPI) [5] | cell variability in siACE cells compared with siCtr cells (MDA-MB-468-siACE cells) | IC50 ([2]; Homo sapiens, HEK-293T) | cell variability in HEK293T-ACE compared with HEK293T (HEK293T-ACE cells) | average tumor weight (MDA-MB-468 cells [6]; end of 28-day treatment, 2.4 μmol/kg i.p. every 4 days) | tumor growth compared with control mice (MDA-MB-468 cells [6]; i.p. every 4 days, 28 days, PTX 2.4 μmol/kg, BPP-PTX 2.4 and 9.6 μmol/kg) | IC50 ([3]; Homo sapiens) | apoptosis (MDA-MB-468 cells [7]) | apoptosis (MDA-MB-231 cells) | cell variability in siACE cells compared with siCtr cells (MDA-MB-231-siACE cells) | IC50 ([4]; Homo sapiens)
CC[C@H](C)[C@H](NC(=O)[C@H](CCC(N)=O)NC(=O)[C@@H]1CCCN1C(=O)[C@H](CCCNC(=N)N)NC(=O)[C@@H]1CCCN1C(=O)[C@H](Cc1c[nH]c2ccccc12)NC(=O)[C@H](CCC(=O)O)NC(=O)CCC(=O)O[C@@H](C(=O)O[C@H]1C[C@@]2(O)[C@@H](OC(=O)c3ccccc3)[C@@H]3[C@]4(OC(C)=O)CO[C@@H]4C[C@H](O)[C@@]3(C)C(=O)[C@H](OC(C)=O)C(=C1C)C2(C)C)[C@@H](NC(=O)c1ccccc1)c1ccccc1)C(=O)N1CCC[C@H]1C(=O)N1CCC[C@H]1C(N)=O [BPP-PTX] ({Paclitaxel(2'-O-succinyl)}-EWPRPQIPP-NH2) | about 17% | ~22% | no body weight loss | ~2.8% | ~6.4% | 616 nM | 9.5 nM | 12.3 nM | – | – | – | – | – | – | – | – | – | – | –
CC(=O)O[C@H]1C(=O)[C@@]2(C)[C@H]([C@H](OC(=O)c3ccccc3)[C@]3(O)C[C@H](OC(=O)[C@H](O)[C@@H](NC(=O)c4ccccc4)c4ccccc4)C(C)=C1C3(C)C)[C@]1(OC(C)=O)CO[C@@H]1C[C@@H]2O [PTX, Paclitaxel] | about 52% | – | – | about 6.2% | – | – | – | – | condensed and fragmented | no difference | 6.7 nM | No differences | 0.26 g | significantly lower; also recorded: clear reduction | 3.1 nM | induced apoptosis | induced apoptosis | no difference | 3 nM
